Values quoted from earlier work in PMC11451938 (RSC Medicinal Chemistry, 2024).

Target: hNTS1
Conditions: read-out: NTS1 Ki; CHO-K1 cells expressing hNTS1

Ki: 4 nM
Substance: JMV 438: NT[8-13] in which the Arg8-Arg9 fragment was replaced with Lys8-Lys9
